# Measurements published in ChEMBL document CHEMBL5465560, “Selectivity Literature for EUbOPEN Chemogenomic Library” (2024).
# Key:
# [1] = target: Platelet-derived growth factor receptor beta (Homo sapiens, UniProt P09619); experiment: Selectivity interaction (KinomeScan (DiscoverX)) EUB0000695a PDGFRB; settings: at 100 nM
# [2] = target: T1, Mitogen-activated protein kinase kinase kinase kinase 2 (Homo sapiens) (UniProt Q12851); experiment: Selectivity interaction (KinomeScan (DiscoverX)) EUB0000229b MAP4K2; settings: at 10 µM
# T1 sequence (whole entry): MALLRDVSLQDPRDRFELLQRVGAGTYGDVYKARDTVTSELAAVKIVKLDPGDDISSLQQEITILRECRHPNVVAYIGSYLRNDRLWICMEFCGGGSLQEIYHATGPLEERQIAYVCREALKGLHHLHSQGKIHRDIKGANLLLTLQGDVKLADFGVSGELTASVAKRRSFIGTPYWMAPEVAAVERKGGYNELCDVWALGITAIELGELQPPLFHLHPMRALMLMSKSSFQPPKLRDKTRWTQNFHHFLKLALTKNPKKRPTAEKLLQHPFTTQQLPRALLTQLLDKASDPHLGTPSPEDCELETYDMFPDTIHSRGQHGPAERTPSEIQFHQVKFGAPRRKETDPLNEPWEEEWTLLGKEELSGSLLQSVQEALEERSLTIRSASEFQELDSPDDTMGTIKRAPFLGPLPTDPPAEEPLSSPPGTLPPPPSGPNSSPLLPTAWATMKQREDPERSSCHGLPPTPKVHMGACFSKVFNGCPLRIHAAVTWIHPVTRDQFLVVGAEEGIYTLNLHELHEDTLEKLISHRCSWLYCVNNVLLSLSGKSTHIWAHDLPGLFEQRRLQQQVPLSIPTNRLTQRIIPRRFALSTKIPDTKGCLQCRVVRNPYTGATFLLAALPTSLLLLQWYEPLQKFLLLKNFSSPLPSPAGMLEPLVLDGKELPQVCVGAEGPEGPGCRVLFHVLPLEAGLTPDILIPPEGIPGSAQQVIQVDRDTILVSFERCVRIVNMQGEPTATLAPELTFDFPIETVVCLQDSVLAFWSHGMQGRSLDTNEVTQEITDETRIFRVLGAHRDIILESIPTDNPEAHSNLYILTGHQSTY
# [3] = target: T2, Tyrosine-protein kinase ZAP-70 (Homo sapiens) (UniProt P43403); experiment: Selectivity interaction (KinomeScan (DiscoverX)) EUB0000229b ZAP70; settings: at 10 µM
# T2 sequence (whole entry): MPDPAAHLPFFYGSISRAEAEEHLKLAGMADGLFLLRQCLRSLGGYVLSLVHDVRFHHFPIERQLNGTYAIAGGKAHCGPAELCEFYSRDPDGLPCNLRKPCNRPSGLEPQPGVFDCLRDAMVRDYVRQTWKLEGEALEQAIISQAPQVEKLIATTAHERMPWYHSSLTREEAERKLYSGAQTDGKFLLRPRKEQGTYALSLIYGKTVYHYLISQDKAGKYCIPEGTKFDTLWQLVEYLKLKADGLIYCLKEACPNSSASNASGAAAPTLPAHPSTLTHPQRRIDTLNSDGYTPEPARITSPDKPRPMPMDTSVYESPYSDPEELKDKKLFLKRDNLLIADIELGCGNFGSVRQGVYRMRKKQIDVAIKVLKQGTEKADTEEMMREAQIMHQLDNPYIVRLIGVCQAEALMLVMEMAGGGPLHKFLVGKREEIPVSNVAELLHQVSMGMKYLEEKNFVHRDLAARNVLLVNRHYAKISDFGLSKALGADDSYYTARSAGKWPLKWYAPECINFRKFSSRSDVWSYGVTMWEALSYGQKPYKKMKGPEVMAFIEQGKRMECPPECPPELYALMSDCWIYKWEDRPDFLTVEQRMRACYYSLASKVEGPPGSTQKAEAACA
# [4] = target: Homeodomain-interacting protein kinase 1 (Homo sapiens, UniProt Q86Z02); experiment: Selectivity interaction (ProQinase) EUB0000171b HIPK1
# [5] = target: T3, Protein kinase C epsilon type (Homo sapiens) (UniProt Q02156); experiment: Selectivity interaction (KinomeScan (DiscoverX)) EUB0000311b PRKCE; settings: at 1 µM
# T3 sequence (whole entry): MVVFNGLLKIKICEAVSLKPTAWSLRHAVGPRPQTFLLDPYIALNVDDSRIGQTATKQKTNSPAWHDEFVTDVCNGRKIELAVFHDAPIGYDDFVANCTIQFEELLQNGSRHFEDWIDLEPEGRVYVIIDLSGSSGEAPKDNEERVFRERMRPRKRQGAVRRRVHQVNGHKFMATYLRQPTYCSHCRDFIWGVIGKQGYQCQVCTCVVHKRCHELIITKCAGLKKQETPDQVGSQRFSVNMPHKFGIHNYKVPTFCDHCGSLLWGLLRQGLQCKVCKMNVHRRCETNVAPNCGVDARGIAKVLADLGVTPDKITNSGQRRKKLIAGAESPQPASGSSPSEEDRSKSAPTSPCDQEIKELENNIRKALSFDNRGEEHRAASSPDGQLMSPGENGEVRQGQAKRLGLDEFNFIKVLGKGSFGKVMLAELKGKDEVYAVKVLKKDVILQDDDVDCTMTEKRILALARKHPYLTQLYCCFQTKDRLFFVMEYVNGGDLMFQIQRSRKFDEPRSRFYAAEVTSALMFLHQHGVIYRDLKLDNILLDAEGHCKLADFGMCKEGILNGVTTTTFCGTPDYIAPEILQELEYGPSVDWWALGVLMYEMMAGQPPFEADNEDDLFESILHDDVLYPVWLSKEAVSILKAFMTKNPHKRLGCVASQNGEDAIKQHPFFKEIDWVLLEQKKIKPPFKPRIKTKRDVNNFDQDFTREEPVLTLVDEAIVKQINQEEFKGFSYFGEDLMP
# [6] = test system: Hepatocyte growth factor receptor (Homo sapiens), P08581 [M1250T]; experiment: (§1) Selectivity interaction (SelectScreen profiling (Invitrogen)) EUB0000607a MET; settings: at 2 µM
# [7] = target: Hepatocyte growth factor receptor (Homo sapiens, UniProt P08581); experiment: as §1; settings: at 2 µM
# Hepatocyte growth factor receptor, sequence (P08581 whole entry): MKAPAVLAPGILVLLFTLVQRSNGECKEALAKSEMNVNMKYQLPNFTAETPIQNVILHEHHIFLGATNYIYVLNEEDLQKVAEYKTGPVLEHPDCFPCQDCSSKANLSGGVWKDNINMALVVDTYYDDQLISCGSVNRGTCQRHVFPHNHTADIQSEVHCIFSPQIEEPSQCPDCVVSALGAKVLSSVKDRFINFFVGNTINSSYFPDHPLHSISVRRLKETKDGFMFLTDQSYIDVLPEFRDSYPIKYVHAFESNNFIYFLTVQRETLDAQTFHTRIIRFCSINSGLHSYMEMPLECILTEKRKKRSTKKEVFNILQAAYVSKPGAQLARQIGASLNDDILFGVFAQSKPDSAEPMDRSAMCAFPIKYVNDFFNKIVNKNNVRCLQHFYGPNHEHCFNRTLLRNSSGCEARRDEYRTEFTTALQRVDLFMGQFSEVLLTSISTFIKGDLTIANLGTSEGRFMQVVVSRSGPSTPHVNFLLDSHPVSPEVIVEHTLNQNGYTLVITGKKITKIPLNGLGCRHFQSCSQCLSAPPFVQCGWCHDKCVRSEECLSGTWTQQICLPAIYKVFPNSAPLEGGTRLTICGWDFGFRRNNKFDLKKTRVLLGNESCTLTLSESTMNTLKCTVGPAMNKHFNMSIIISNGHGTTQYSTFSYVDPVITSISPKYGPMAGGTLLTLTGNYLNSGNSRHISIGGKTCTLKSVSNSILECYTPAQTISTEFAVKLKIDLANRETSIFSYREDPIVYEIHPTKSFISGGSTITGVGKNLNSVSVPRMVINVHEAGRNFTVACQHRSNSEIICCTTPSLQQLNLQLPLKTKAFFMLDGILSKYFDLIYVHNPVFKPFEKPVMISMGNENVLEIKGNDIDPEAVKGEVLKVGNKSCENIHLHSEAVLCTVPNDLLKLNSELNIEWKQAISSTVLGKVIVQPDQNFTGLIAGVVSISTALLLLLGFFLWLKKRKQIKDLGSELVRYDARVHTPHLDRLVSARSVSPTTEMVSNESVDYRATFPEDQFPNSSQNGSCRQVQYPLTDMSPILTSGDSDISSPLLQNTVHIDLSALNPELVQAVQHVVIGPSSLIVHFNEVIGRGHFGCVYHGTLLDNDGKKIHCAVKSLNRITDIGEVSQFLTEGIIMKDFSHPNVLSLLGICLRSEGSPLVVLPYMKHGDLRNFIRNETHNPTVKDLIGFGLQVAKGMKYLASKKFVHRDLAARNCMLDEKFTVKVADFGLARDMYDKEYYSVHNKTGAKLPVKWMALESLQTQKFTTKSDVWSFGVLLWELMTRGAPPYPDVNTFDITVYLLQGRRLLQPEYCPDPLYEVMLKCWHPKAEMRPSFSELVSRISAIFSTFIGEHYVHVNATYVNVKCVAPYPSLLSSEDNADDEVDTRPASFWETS
# Homeodomain-interacting protein kinase 1, sequence (Q86Z02 whole entry, looked up): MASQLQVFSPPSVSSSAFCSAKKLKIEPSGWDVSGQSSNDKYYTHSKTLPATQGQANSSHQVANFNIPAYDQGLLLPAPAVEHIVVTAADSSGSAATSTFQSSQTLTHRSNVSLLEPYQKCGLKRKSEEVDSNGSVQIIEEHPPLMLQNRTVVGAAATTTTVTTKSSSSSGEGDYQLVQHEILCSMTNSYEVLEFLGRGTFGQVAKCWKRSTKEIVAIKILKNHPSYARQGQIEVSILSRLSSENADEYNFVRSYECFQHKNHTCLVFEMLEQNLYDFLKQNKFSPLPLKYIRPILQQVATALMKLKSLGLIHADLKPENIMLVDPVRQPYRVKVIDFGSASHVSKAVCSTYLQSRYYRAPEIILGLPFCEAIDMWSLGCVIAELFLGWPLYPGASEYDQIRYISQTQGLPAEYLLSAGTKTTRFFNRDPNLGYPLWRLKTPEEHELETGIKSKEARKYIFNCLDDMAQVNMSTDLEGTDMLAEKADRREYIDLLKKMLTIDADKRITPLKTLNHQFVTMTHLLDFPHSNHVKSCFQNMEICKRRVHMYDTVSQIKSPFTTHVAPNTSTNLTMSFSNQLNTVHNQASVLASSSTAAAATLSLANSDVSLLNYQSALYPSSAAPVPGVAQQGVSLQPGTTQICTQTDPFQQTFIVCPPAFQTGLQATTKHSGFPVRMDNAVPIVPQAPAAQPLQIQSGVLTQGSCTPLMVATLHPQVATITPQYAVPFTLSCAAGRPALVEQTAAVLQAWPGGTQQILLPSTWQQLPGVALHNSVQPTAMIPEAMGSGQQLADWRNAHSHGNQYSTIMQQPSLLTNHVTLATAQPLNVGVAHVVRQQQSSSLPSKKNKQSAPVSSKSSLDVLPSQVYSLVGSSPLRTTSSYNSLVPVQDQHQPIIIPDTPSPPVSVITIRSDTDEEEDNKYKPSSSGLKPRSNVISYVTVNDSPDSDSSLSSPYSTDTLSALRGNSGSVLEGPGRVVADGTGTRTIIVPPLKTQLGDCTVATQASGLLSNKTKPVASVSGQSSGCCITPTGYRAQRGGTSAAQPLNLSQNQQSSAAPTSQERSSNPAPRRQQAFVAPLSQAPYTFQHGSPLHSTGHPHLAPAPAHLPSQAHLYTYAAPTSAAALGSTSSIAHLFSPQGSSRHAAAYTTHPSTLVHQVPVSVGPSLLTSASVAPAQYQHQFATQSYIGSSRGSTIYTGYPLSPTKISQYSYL
# Hepatocyte growth factor receptor (Homo sapiens), P08581 [M1250T], sequence (P08581 whole entry M1250T): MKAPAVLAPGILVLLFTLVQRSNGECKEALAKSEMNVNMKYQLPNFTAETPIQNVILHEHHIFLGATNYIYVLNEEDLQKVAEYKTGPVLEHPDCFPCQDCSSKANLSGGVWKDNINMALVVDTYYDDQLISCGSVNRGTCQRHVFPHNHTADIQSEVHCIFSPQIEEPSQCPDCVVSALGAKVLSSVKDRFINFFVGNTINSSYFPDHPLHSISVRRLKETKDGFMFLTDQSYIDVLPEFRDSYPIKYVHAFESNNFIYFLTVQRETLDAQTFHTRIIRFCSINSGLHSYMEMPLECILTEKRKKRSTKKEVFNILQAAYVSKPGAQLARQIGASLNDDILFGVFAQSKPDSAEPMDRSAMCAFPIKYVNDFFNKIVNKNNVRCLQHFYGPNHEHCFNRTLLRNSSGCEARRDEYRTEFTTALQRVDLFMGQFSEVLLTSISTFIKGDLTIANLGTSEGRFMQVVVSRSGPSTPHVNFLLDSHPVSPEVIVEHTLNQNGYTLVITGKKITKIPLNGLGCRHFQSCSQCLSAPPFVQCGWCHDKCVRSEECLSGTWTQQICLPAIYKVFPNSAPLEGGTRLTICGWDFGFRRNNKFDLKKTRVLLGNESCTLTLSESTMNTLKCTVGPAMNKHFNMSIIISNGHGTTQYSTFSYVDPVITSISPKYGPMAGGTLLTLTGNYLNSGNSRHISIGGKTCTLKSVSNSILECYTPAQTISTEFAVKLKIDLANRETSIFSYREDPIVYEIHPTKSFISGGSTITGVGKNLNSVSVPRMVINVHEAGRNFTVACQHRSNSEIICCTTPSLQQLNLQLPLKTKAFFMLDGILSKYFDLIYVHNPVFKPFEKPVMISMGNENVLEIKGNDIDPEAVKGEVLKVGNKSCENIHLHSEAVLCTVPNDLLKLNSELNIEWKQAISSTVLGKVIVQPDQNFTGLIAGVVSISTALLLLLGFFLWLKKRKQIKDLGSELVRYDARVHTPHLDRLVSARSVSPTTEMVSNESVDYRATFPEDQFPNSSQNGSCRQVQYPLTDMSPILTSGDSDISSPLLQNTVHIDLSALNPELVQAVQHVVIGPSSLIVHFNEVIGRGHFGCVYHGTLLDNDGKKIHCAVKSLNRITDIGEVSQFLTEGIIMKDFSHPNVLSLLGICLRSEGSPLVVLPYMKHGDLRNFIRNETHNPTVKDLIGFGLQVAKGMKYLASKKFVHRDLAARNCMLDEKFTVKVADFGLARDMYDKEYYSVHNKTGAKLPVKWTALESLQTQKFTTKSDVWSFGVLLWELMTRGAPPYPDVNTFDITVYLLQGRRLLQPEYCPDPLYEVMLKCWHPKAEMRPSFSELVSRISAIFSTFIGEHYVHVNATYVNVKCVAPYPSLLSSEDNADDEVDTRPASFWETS
# Platelet-derived growth factor receptor beta, sequence (P09619 whole entry): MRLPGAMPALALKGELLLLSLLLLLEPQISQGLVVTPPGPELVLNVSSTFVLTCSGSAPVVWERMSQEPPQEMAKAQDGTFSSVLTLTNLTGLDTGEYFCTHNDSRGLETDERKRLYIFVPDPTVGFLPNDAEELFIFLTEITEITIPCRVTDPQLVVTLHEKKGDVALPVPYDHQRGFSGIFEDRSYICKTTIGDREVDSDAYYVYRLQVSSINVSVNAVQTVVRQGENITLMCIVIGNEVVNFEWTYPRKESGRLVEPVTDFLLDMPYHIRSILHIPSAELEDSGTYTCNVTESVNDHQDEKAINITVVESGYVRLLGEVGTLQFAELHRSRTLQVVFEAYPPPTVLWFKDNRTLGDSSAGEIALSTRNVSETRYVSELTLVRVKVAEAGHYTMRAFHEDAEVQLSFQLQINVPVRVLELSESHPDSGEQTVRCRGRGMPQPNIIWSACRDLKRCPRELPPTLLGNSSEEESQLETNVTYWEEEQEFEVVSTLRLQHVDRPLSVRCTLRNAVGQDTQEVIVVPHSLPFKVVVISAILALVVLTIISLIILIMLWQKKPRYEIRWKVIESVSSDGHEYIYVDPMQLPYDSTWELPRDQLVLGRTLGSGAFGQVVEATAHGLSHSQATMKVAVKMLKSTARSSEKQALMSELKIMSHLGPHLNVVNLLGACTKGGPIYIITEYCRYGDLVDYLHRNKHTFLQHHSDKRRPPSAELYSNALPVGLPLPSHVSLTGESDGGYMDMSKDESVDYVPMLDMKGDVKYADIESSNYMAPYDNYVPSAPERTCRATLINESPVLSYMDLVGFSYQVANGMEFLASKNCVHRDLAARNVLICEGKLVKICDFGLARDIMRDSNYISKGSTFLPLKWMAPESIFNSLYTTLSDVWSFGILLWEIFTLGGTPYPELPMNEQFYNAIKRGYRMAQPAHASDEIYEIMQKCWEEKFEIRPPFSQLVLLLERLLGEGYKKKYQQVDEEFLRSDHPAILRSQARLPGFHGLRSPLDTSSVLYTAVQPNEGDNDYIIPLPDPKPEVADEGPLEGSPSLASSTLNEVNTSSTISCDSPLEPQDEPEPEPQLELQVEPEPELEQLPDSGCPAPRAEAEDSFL
compound,measurement,setting,value
Cc1cc(F)c(C(=O)Nc2cccc(-c3nncn3C(C)C)n2)cc1-n1cnc(C2CC2)c1,% of control,[1],90%
COc1cc(N(C)c2ccnc3ccc(C(F)(F)F)cc23)cc(OC)c1OC,% binding,[2],65%
same,% binding,[3],100%
C=CC(=O)Nc1cccc(C(=O)Nc2ccc(Nc3cc(-c4[nH]c(SC)nc4C)ccn3)cc2)c1,% of control,[4]; at 1 µM,103%
same,% of control,[4]; at 5 µM,143%
CCc1ccccc1C(=O)Nc1n[nH]c2c(C)c(F)c(C3C(C#N)=C(C)N(C)C(C)=C3C#N)cc12 [BAY-3827],% of control,[5],19%
CNC(=O)Nc1ccc(-c2nc(N3CC4CCC(C3)O4)c3cnn(C4CCC5(CC4)OCCO5)c3n2)cc1,% of inhibition,[6],1%
same,% of inhibition,[7],2%
